Laboratory results taken from patent US11897880B2, “7,8-dihydrobenzo[e]pyrido[3,4-c]azocine-2,5(3H,6H)-dione derivatives useful as a factor XIa inhibitors” (Janssen Pharmaceutica NV, priority 2021, dated 2024).
Where two headings read alike, the source gives them in different places.

Tests used:
Factor XIa = Factor XIa (Homo sapiens, UniProt P03951); assay: Factor XIa inhibition assay utilizing a fluorophore-quencher pair peptide substrate (FLINT); assay type: biochemical; conditions: for IC50: read-out: FXIa IC50; for Ki: read-out: FXIa Ki
From the text: Biological Example 1: Factor XIa Inhibition Assay Utilizing a Fluorophore-Quencher Pair Peptide Substrate
A fluorescence intensity (FLINT) based assay was used to monitor inhibition of Factor XIa. The peptide substrate, 5Fam-KLTRAETV-K5Tamra (purchased from New England Peptide) was chosen based on the FXI sequence. Conversion of zymogen FXI to its activated form, FXIa, occurs by proteolytic cleavage by […] at two sites, Arg146 and Arg180. The custom peptide used in this assay was based on the Arg146 cleavage site of FXI. The peptide substrate was designed with a fluorophore-quencher pair, where the fluorescence is quenched until FXIa cleaves the 8-mer peptide after the Arg residue.
The Factor XIa FLINT assay was used with the following 5Fam-KLTRAETV-K5Tamra assay buffer: 50 mM Tris, pH 7.5, 100 mM NaCl, 5 mM CaCl2), 0.1 mg/mL BSA, 0.03% CHAPS. Assay buffer was prepared by mixing all ingredients fresh. 5Fam-KLTRAETV-K5Tamra peptide substrate was first prepared at 10 mM in 100% DMSO, then diluted to 3 mM in 100% DMSO. Assay buffer was then added directly to the 3 mM stock of substrate to prepare the 30 μM 2× working concentration (15 μM final concentration). The 2× Factor XIa stock solution was prepared by diluting 6.562 μM stock in 1× assay buffer for a […].
Test compound(s) were run in an 11-point, 3-fold serial dilution with a final top compound concentration of 100 nM. Final DMSO in assay was 2%. FXIa was preincubated with compound for 30-minutes and then substrate was added to initiate the reaction. The assay was run with kinetic (KIN) reads at 5 min intervals over 30 minutes. The time course was linear using […] FXIa greater than 30 minutes. More specifically, the assay was run as follows: • 100 nL of 0.01 mM test compound was dispensed into black 384-well non-binding Greiner BioOne 784900 plate for 0.1 μM final concentration; • 5 μL of 1× assay buffer was dispensed to column 24 (low control) and 5 μL 2× Factor XIa solution was dispensed to columns 1-23 (column 23 high control); • the plate was centrifuged with a “cover” plate at 500 rpm for 1 min • the plate was pre-incubated for 30 minutes at room temperature with plate covered; • 5 μL of 2×5Fam-KLTRAETV-K5Tamra peptide substrate was dispensed into the entire plate, columns 1-24; • the plate was centrifuged with a “cover” plate at 500 rpm for 1 min; • the plate was read monitoring fluorescence intensity on the BMG PHERAStar at room temperature, using fluorescence module 485 nm/520 nm.
Percent inhibition (IC50) curves were generated per compound tested, and data was analyzed using a 4-parameter logistic fit using GeneData Screener. The relative fluorescence unit (RFU) values were normalized to percent inhibition using the following equation: % inhibition=((HC−LC)−(compound−LC)/(HC−LC))*100
where LC−low control=mean signal of no Factor XIa or 100% inhibition of Factor XIa; HC−high control=mean signal of Factor XIa+5Fam-KLTRAETV-K5Tamra peptide substrate with DMSO only.
An 11-point dose response curve for the test compound(s) was generated using GENDATA to determine IC50 value based on the following equation: Y=Bottom+(Top−Bottom)/(1+10^((log IC50−X)*HillSlope))
where Y is the % inhibition in the presence of X inhibitor concentration, Top=high control=mean signal of Factor XIa+5Fam-KLTRAETV-K5Tamra peptide substrate with DMSO only; Bottom=low control−mean signal of no Factor XIa or 100% inhibition of Factor XIa; HillSlope−Hill coefficient; and IC50=concentration of compound with 50% inhibition in relation to top/high control.
(§1) Representative compounds of formula (I) of the present invention were tested according to the procedure described in Biological Example 1 and Biological Example 2 above, with results as listed in Table 3, below.

human plasma kallikrein = human plasma kallikrein (Homo sapiens, UniProt P03952); assay: Kallikrein inhibition assay utilizing a quenched AMC peptide substrate (FLINT); assay type: biochemical; conditions: 30 min preincubation, 50 μM Z-Gly-Pro-Arg-AMC, 2 nM kallikrein
From the text: Biological Example 2: Kallikrein Inhibition Assay Utilizing a Quenched AMC Peptide Substrate
A fluorescence intensity (FLINT) based assay was used to monitor inhibition of human plasma kallikrein. The peptide substrate, Z-Gly-Pro-Arg-AMC (Purchased from Bachem; Catalog #1-1150) was chosen based on its relatively low KM for kallikrein which enables running the assay at lower substrate concentrations to control background fluorescence.
The Kallikrein FLINT assay was used with the following Z-Gly-Pro-Arg-AMC assay buffer: 50 mM Tris, pH 7.5, 100 mM NaCl, 5 mM CaCl2), 0.1 mg/mL BSA, 0.03% CHAPS. Assay buffer was prepared by mixing all ingredients fresh. 2× Z-Gly-Pro-Arg-AMC peptide substrate was prepared by diluting 10 mM stock into 1× assay buffer for a 100 μM working concentration (50 μM final concentration). The 2× kallikrein stock solution was prepared by diluting 14.76 μM stock in 1× assay buffer for a 4 nM working stock solution (2 nM final concentration).
Test compound(s) were run in an 11-point, 3-fold serial dilution with a final top compound concentration of 1 μM. Final DMSO in assay was 2%. Plasma kallikrein was pre-incubated for 30-minute with compound and then 50 μM substrate was added to initiate the reaction. The assay was run with kinetic (KIN) reads at 5 min intervals over 30 minutes. The time course was linear using 2 nM kallikrein greater than 30 minutes. More specifically, the assay was run as follows: • 100 nL of 0.1 mM test compound was dispensed into black 384-well non-binding Greiner BioOne 784900 plate for 1 μM final concentration; • 5 μL of 1× assay buffer was dispensed to columns 24 (low control) and 5 μL 2× human kallikrein enzyme solution was dispensed to columns 1-23 (column 23 high control); • the plate was centrifuged with a “cover” plate at 500 rpm for 1 min • the plate was pre-incubated for 30 minutes at room temperature with plate covered; • 5 μL of 2× Z-Gly-Pro-Arg-AMC peptide substrate was dispensed into the entire plate, columns 1-24; • the plate was centrifuged with a “cover” plate at 500 rpm for 1 min; the plate was read monitoring fluorescence intensity on the BMG PHERAStar at room temperature, using fluorescence module 340 nm/440 nm.
Percent inhibition (IC50) curves were generated per compound tested, and data was analyzed using a 4-parameter logistic fit using GeneData Screener. The relative fluorescence unit (RFU) values were normalized to percent inhibition using the following equation: % inhibition=((HC−LC)−(compound−LC)/(HC−LC))*100 where LC—low control=mean signal of human kallikrein enzyme or 100% inhibition of human kallikrein enzyme; HC—high control=mean signal of […]+Z-Gly-Pro-Arg-AMC peptide substrate with DMSO only.
An 11-point dose response curve for the test compound(s) was generated using GENDATA to determine IC50 value based on the following equation: Y=Bottom+(Top−Bottom)/(1+10^((log IC50−X)*HillSlope)) • where Y is the % inhibition in the presence of X inhibitor concentration, Top=high control=mean signal of human kallikrein enzyme+Z-Gly-Pro-Arg-AMC peptide substrate with DMSO only; Bottom=low control−mean signal of no human kallikrein enzyme or 100% inhibition of human kallikrein enzyme; HillSlope—Hill coefficient; and IC50=concentration of compound with 50% inhibition in relation to top/high control.
as §1

[1] = cells that print μM themselves in the nM column, same assay conditions
[2] = 30 min preincubation, 5Fam-KLTRAETV-K5Tamra substrate 15 μM final, kinetic reads

Factor XIa, sequence (P03951 388-625 limits assumed): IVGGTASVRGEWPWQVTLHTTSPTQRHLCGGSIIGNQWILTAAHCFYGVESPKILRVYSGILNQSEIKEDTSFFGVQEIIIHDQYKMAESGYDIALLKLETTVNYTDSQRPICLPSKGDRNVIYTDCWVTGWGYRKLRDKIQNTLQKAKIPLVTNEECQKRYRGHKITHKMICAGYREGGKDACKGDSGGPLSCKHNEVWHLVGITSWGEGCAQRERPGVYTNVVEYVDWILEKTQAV
Factor XIa, sequence (P03951 19-387 partner limits assumed): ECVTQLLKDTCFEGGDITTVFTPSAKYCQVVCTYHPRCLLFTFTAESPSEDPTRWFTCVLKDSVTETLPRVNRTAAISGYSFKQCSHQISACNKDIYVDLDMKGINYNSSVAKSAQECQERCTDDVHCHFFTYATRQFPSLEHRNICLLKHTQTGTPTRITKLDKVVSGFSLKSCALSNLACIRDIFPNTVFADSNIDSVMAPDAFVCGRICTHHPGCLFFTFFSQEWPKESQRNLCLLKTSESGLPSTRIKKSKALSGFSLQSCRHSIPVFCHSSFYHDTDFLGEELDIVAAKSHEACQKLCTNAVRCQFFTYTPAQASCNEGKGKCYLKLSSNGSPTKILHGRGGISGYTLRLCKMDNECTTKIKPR
human plasma kallikrein, sequence (P03952 391-638 limits assumed): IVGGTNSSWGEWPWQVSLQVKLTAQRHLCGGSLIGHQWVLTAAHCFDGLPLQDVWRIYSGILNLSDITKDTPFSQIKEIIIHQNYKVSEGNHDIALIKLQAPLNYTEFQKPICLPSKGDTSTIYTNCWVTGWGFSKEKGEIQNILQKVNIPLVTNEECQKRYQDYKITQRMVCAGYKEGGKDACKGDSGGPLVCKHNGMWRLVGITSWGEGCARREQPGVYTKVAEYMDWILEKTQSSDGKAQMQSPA
human plasma kallikrein, sequence (P03952 20-390 partner limits assumed): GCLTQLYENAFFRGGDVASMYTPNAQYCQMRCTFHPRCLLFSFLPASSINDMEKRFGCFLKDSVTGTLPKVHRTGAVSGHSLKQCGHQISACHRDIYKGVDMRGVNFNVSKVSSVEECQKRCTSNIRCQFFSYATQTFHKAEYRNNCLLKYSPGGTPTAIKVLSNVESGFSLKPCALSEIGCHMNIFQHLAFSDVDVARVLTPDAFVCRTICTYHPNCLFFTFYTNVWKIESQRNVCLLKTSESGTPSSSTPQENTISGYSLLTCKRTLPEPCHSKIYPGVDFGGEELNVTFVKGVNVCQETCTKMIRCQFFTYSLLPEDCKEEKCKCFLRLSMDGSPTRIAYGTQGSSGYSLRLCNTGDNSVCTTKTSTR

SMILES | IC50 (Factor XIa; [1]) | Ki (Factor XIa) | IC50 (human plasma kallikrein) | IC50 (Factor XIa; [2]) | Ki (Factor XIa; cells that print μM themselves in the nM column)
Nc1ccc(-c2cnc([C@H]3CCc4c5c(cc(=O)n43)-c3c(ccc(Cl)c3F)CC3(CC3)N(CCO)C5=O)[nH]2)c(F)n1 (single isomer, unassigned) [Compound 10, (R*)-12-(5-(6-amino-2-fluoropyridin-3-yl)-1H-imidazol-2-yl)-7-chloro-8-fluoro-2-(2-hydroxyethyl)-13,14-dihydro-2H-spiro[benzo[5,6]azocino[4,3-g]indolizine-3,1′-cyclopropane]-1,10(4H,12H)-dione] | 1.85 µM | 0.926 µM | > 10 µM | – | –
Nc1ccc(-c2cnc([C@H]3CCc4c5c(cc(=O)n43)-c3c(ccc(Cl)c3F)CC3(CC3)NC5=O)[nH]2)c(F)n1 (stereo in doubt) [Compound 54, (R*)-12-(5-(6-amino-2-fluoropyridin-3-yl)-1H-imidazol-2-yl)-7-chloro-8-fluoro-13,14-dihydro-2H-spiro[benzo[5,6]azocino[4,3-g]indolizine-3,1′-cyclopropane]-1,10(4H,12H)-dione] | – | 0.112 µM | > 10 µM | 0.224 µM | –
O=C1NC2(CC2)Cc2ccc(Cl)c(F)c2-c2cc(=O)n3c(c21)CC[C@H]3c1ncc(-c2ccc3cncn3c2)[nH]1 (stereo in doubt) [Compound 23, (S*)-7-chloro-8-fluoro-12-(5-(imidazo[1,5-a]pyridin-6-yl)-1H-imidazol-2-yl)-13,14-dihydro-2H-spiro[benzo[5,6]azocino[4,3-g]indolizine-3,1′-cyclopropane]-1,10(4H,12H)-dione] | – | 0.0035 µM | 0.54 µM | 0.007 µM | –
CN1C(=O)c2c(cc(=O)n3c2CC[C@H]3c2ncc(-c3ccc(N)nc3F)[nH]2)-c2c(ccc(Cl)c2F)CC12CC2 (stereo in doubt) [Compound 41, (S*)-12-(5-(6-amino-2-fluoropyridin-3-yl)-1H-imidazol-2-yl)-7-chloro-8-fluoro-2-methyl-13,14-dihydro-2H-spiro[benzo[5,6]azocino[4,3-g]indolizine-3,1′-cyclopropane]-1,10(4H,12H)-dione] | – | 0.0043 µM | > 10 µM | 0.0086 µM | –
O=C1NC2(CC2)Cc2ccc(Cl)c(F)c2-c2cc(=O)n3c(c21)CCC3c1ncc(-c2ccn3c(Br)cnc3c2)[nH]1 (single isomer, unassigned) [Compound 72, (*R)-12-(5-(3-Bromoimidazo[1,2-a]pyridin-7-yl)-1H-imidazol-2-yl)-7-chloro-8-fluoro-13,14-dihydro-2H-spiro[benzo[5,6]azocino[4,3-g]indolizine-3,1′-cyclopropane]-1,10(4H,12H)-dione] | – | 0.0133 µM | 3.54 µM | 0.0267 µM | –
O=C1NC2(CC2)Cc2ccc(Cl)c(F)c2-c2cc(=O)n3c(c21)CC[C@H]3c1ncc(-c2ccc3[nH]ccc3c2)[nH]1 (single isomer, unassigned) [Compound 16, (S*)-12-(5-(1H-indol-5-yl)-1H-imidazol-2-yl)-7-chloro-8-fluoro-13,14-dihydro-2H-spiro[benzo[5,6]azocino[4,3-g]indolizine-3,1′-cyclopropane]-1,10(4H,12H)-dione] | 1.07 µM | 0.535 µM | > 10 µM | – | –
COCCN1C(=O)c2c(cc(=O)n3c2CC[C@H]3c2ncc(-c3ccc(N)nc3F)[nH]2)-c2c(ccc(Cl)c2F)CC12CC2 (stereo in doubt) [Compound 25, (S*)-12-(5-(6-amino-2-fluoropyridin-3-yl)-1H-imidazol-2-yl)-7-chloro-8-fluoro-2-(2-methoxyethyl)-13,14-dihydro-2H-spiro[benzo[5,6]azocino[4,3-g]indolizine-3,1′-cyclopropane]-1,10(4H,12H)-dione] | – | 0.13 µM | > 10 µM | 0.26 µM | –
O=C1NC2(CC2)Cc2ccc(Cl)c(F)c2-c2cc(=O)n3c(c21)CCC3c1ncc(-c2ccnc(CO)c2F)[nH]1 (stereo not drawn) [Compound 3, 7-chloro-8-fluoro-12-(5-(3-fluoro-2-(hydroxymethyl)pyridin-4-yl)-1H-imidazol-2-yl)-13,14-dihydro-2H-spiro[benzo[5,6]azocino[4,3-g]indolizine-3,1′-cyclopropane]-1,10(4H,12H)-dione] | – | 0.0076 µM | 0.79 µM | 0.0153 µM | –
O=C1NC2(CC2)Cc2ccc(Cl)c(F)c2-c2cc(=O)n3c(c21)CC[C@@H]3c1ncc(-c2ccc3[nH]ccc3c2)[nH]1 (single isomer, unassigned) [Compound 14, (R*)-12-(5-(1H-indol-5-yl)-1H-imidazol-2-yl)-7-chloro-8-fluoro-13,14-dihydro-2H-spiro[benzo[5,6]azocino[4,3-g]indolizine-3,1′-cyclopropane]-1,10(4H,12H)-dione] | 2.03 µM | – | > 10 µM | – | 1.02 µM
O=C1NC2(CC2)Cc2ccc(Cl)c(F)c2-c2cc(=O)n3c(c21)CC[C@@H]3c1ncc(-c2ccc3snnc3c2)[nH]1 (stereo in doubt) [Compound 30, (R*)-12-(5-(benzo[d][1,2,3]thiadiazol-5-yl)-1H-imidazol-2-yl)-7-chloro-8-fluoro-13,14-dihydro-2H-spiro[benzo[5,6]azocino[4,3-g]indolizine-3,1′-cyclopropane]-1,10(4H,12H)-dione] | – | 0.0029 µM | 0.33 µM | 0.0057 µM | –
